Source: patent publication US20250230131A1, “NOVEL IONIZABLE LIPID AND LIPID NANOPARTICLE COMPOSITION USING SAME” (MediciBIO Co., Ltd, priority 2022, published 2025)

Experiments:
[1] = Size (diameter) and PDI of lipid nanoparticles by Dynamic Light Scattering; type: physicochemical; conditions: lipid nanoparticles of the ionizable lipid; diluted with PBS to mRNA 1 μg/mL; DLS
Procedure: (§1) The size and surface charge of lipid nanoparticles according to the ionizable lipid prepared in Example 1 were measured. To measure the size of the lipid nanoparticles, dilution was conducted using PBS to reach the concentration of mRNA contained in each lipid nanoparticle to 1 μg/mL, and Dynamic Light Scattering (DLS) of Malvern Zetasizer Nano (Malvern Instruments, UK) was applied to measure the diameter and a polydispersity index (hereinafter referred to as PDI) of lipid nanoparticles. In addition, in order to measure the surface charge of lipid nanoparticles, dilution was conducted using PBS to reach the concentration of mRNA contained in each lipid nanoparticle to 1 μg/mL, and the surface charge (zeta potential) was measured using the same equipment as above.

[2] = Surface charge (zeta potential) of lipid nanoparticles; type: physicochemical; conditions: diluted with PBS to mRNA 1 μg/mL
Procedure: as §1

[3] = Gene encapsulation efficiency, Quant-iT Ribogreen RNA Reagent and Kit; type: physicochemical; conditions: lipid nanoparticles, TE buffer vs 2% Triton-TE buffer
Procedure: To determine a gene encapsulation efficiency of lipid nanoparticles, the Quant-iT™ Ribogreen™ RNA Reagent and Kit was used. A stock solution for the calibration curve was prepared by taking 5 μL of the ribosomal RNA standard (100 μg/mL in TE buffer) and diluting it with either 245 μL of TE buffer or 0.4% Triton-TE buffer, respectively. Aliquots of 2, 5, 10, 25, and 50 μL of the stock solution were taken, diluted with TE buffer or 0.4% Triton-TE buffer to achieve a total volume of 100 μL, and then mixed with 100 μL of Quant-iT™ Ribogreen™ RNA Reagent; the fluorescence intensity (excitation 475 nm and emission 500˜550 nm) was measured to create a calibration curve. A volume of 5 μL of the nanoparticle solution prepared in Example 2 was taken and diluted with 245 μL of TE buffer (10 mM Tris-HCl, 1 mM EDTA, pH 7.5 in DEPC-treated water). After 50 μL of TE buffer or 50 μL of 2% Triton-TE buffer was added to 50 μL of the diluted nanoparticle solution, respectively, the mixture was incubated at 37° C. for about 10 minutes. Afterwards, 40 μL of each mixture was transferred to a microplate, and 60 μL of TE buffer and 100 μL of Quant-iT™ Ribogreen™ RNA Reagent were added sequentially to measure the fluorescence intensity. After calculating the gene dosage (T0) in the TE buffer and the gene dosage (T2) in the 2% Triton-TE buffer by substituting the measured fluorescence intensity into the calibration curve, the gene encapsulation efficiency was calculated using the following Mathematical Equation 1.

HeLa cells = assay: Intracellular gene delivery efficacy of FLuc mRNA-LNP (luciferase expression); type: cell-based, human; conditions: 0.25 μg/ml encapsulated FLuc mRNA, 6 hours
Procedure: To determine the intracellular gene delivery efficacy of lipid nanoparticles, lipid nanoparticles encapsulated with FLuc mRNA(Fluc mRNA-LNP) were used. To evaluate the gene delivery efficacy, HeLa cells (Korea Cell Line Bank, Seoul), human cervical cancer cell lines expressing low-density lipoprotein (LDL) receptors on the cell surface, were used, and cultured with the MEM medium containing 10% fetal bovine serum and penicillin/streptomycin at 37° C. in the presence of 5% CO2. HeLa cell lines were seeded at 2×10^4 cells per well in a 96-well plate, and after 16˜24 hours, the cells were treated with lipid nanoparticles at a concentration of 0.25 μg/ml based on encapsulated mRNA, in a total volume of 100 μl MEM medium per well in the absence or the presence of 10% fetal bovine serum (FBS).
To measure the expression of intracellular luciferase after FLuc mRNA delivery by lipid nanoparticles, the cells were washed with PBS after 6 hours of treatment. Then, and 100 μl of Glo-Lysis Buffer (Promega, WI, USA) was added to lyse the cells at room temperature for 5 minutes. The lysed cells were added with 100 μl of Steady-Glo™ Luciferase Assay solution (Promega) in a 1:1 ratio, left at room temperature for 5 minutes, and then transferred to a 96-well white plate. Luminescent values were detected using a GloMax Discover microplate reader (Promega). Recombinant luciferase (Promega) was used as the standard material to generate the calibration curve, which was used to determine the luciferase concentration (pg/ml) in the samples.

[4] = test system: mice of the C57BL/6 lineage; assay: Gene delivery efficiency in vivo, intravenous injection, liver luciferase expression; conditions: C57BL/6 mice, after 4 hours
Procedure: (§2) In order to identify the gene delivery efficacy and distribution of lipid nanoparticles in vivo, lipid nanoparticles were injected into 7-week-old mice of the C57BL/6 lineage either intravenously or intramuscularly in the thigh. The liver was extracted in the case of intravenous injection and the organs including the femoral muscle were extracted in the case of intramuscular injection by sacrificing the mice after 4 hours.
(§3) To determine the level of luciferase expression in tissue samples, the tissue sections were weighed and transferred to a tube containing 3 mm metal beads, and a homogenized by adding 500 μl of Glo-Lysis Buffer (Promega) per 50 mg of tissue. The supernatant from the centrifuged homogenates was collected and diluted with the Glo-Lysis Buffer to an appropriate ratio. The diluted homogenates and the Steady-Glo Luciferase Assay solution were then mixed in a 1:1 ratio, with 50 μl of each. After a 5-minute incubation, the luminescence values of luciferase were measured using the same method as described in Example 3-1, and the expression levels (ng/g tissue) of luciferase were calculated.

[5] = test system: mice of the C57BL/6 lineage; assay: Gene delivery efficiency in vivo, intramuscular injection in the thigh, muscle luciferase expression; conditions: femoral muscle, C57BL/6 mice, after 4 hours
Procedure: as §2, §3

## CCCCCCCCC(CCCCCC)C(=O)OCCCCCCN(CCCCCCOC(=O)C(CCCCCC)CCCCCCCC)CCC1CCNCC1 (centres unmarked) [Compound 1, ((2-(piperidin-4-yl)ethyl)azanediyl)bis(hexane-6,1-diyl) bis(2-hexyldecanoate)]
[1]
  PDI: 0.09
  Particle size: 121 nm
[2]
  Surface Charge: +29.1 mV
[3]
  Gene encapsulation efficiency: 99.7%
HeLa cells; 10% FBS
  Luciferase expression level (Mean ± SD): 16,060 ± 102 pg/ml
HeLa cells; w/o FBS
  Luciferase expression level (Mean ± SD): 16,685 ± 646 pg/ml

## CCCCCCCCC(CCCCCC)C(=O)OCCCCCCN(CCCCCCOC(=O)C(CCCCCC)CCCCCCCC)Cc1ccc(N)cc1 (centres unmarked) [Compound 3, ((4-aminobenzyl)azanediyl)bis(hexane-6,1-diyl) bis(2-hexyldecanoate)]
[1]
  PDI: 0.18
  Particle size: 78 nm
[2]
  Surface Charge: −1.4 mV
[3]
  Gene encapsulation efficiency: 93.8%

## CCCCCCCCC(CCCCCC)C(=O)OCCCCCCN(CCCCCCOC(=O)C(CCCCCC)CCCCCCCC)CCN1CCNCC1 (centres unmarked) [Compound 2, ((2-(piperazin-1-yl)ethyl)azanediyl)bis(hexane-6,1-diyl) bis(2-hexyldecanoate)]
[1]
  PDI: 0.12
  Particle size: 106 nm
[2]
  Surface Charge: +28.1 mV
[3]
  Gene encapsulation efficiency: 94.9%
HeLa cells; 10% FBS
  Luciferase expression level (Mean ± SD): 8,492 ± 2,375 pg/ml
HeLa cells; w/o FBS
  Luciferase expression level (Mean ± SD): 15,270 ± 2,273 pg/ml

## CCCCCCCCC(CCCCCC)C(=O)OCCCCCCN(CCCCCCOC(=O)C(CCCCCC)CCCCCCCC)CCCn1ccnc1C (centres unmarked) [Compound 5, ((3-(2-methyl-1H-imidazol-1-yl)propyl)azanediyl)bis(hexane-6,1-diyl) bis(2-hexyldecanoate)]
[1]
  PDI: 0.08
  Particle size: 104 nm
[2]
  Surface Charge: +19.9 mV
[3]
  Gene encapsulation efficiency: 93.5%
[4]
  Luciferase expression level (Mean ± SD): 2,582 ± 745 ng/g
[5]
  Luciferase expression level (Mean ± SD): 651 ± 158 ng/g

## CCCCCCCCC(CCCCCC)C(=O)OCCCCCCN(CCCCCCOC(=O)C(CCCCCC)CCCCCCCC)CCc1ccc(N)nc1 (centres unmarked) [Compound 4, ((2-(6-aminopyridin-3-yl)ethyl)azanediyl)bis(hexane-6,1-diyl) bis(2-hexyldecanoate)]
[1]
  PDI: 0.13
  Particle size: 84 nm
[2]
  Surface Charge: +2.0 mV
[3]
  Gene encapsulation efficiency: 78.2%
[4]
  Luciferase expression level (Mean ± SD): 6,844 ± 2,052 ng/g

## CCCCCCCCC(CCCCCC)C(=O)OCCCCCCN(CCCCCCOC(=O)C(CCCCCC)CCCCCCCC)CCCn1cc(C)nc1C (centres unmarked) [Compound 6, ((3-(2,4-dimethyl-1H-imidazol-1-yl)propyl)azanediyl)bis(hexane-6,1-diyl)bis(2-hexyldecanoate)]
[4]
  Luciferase expression level (Mean ± SD): 1,172 ± 99 ng/g
[5]
  Luciferase expression level (Mean ± SD): 358 ± 74 ng/g
